We go through 2 compounds from patent US20200061026A1, “METHODS AND COMPOSITIONS FOR PREVENTING VECTOR-BORNE DISEASE TRANSMISSION” (The Scripps Research Institute, priority 2016, published 2020).

Values joined by “and” are separate entries in the source; they are usually repeats but may differ in a detail not shown here. Equal entries are not always repeated. Where two headings read alike, the source gives them in different places.

The subject of series [1] is Anopheles gambiae (Kisumu). Description: Membrane feeding, Anopheles gambiae Kisumu strain. The format is in vivo. The following applies: read-out: IC50 [95% CI]. The protocol: Mosquito colonies utilized in the examples were generally maintained as described: The colony of Anopheles stephensi (Sind-Kasur Nijmegen strain) was maintained at the Radboud University Medical Center, Nijmegen, The Netherlands, by 30° C. and 70-80% humidity and on a 12/12 hour day/night cycle. The Anopheles gambiae strains Kisumu and Tiassalé and the Aedes aegypti strains New Orleans and Cayman were reared at the Liverpool Insect Testing Establishment, Liverpool, UK. Kisumu is an insecticide susceptible lab strain. New Orleans was originally colonized by the Centers for Disease Control and Prevention. […]
Isoxazoline compounds fluralaner or afoxolaner were reconstituted in 50% human serum and 50% red blood cells and administered to adult Anopheles stephensi mosquitos via standard membrane feeding. Lethality was assessed 1, 2 or 8 days after exposure. […] The IC50 values of each compound for Anopheles death were determined by logistic regression using a least squares method to find the best fit and are shown in Table 1. IC50 values were calculated by applying a four-parameter logistic regression model using a least-squares method to find the best fit using the Graphpad Prism 5.0 software package. […]

Another series relates to Anopheles mosquitos. Description: Lethal duration estimated by extrapolating published Beagle dog PK curves to killing concentrations. The text has this: Data for fluralaner in Beagle dogs was obtained from Walther et al., Parasites & Vectors 8:508. Data from afoxolaner in Beagle dogs was obtained from Letendre et al., Veterinary Parasitology, 201, 190-197.
The lethal duration of fluralaner and afoxolaner was estimated by extrapolating pharmacokinetic curves from published studies in Beagle dogs to the killing concentrations determined by the membrane feeding studies described in Example 2. Data for fluralaner in Beagle dogs was obtained from Walther et al., Parasites & Vectors 8:508. Data from afoxolaner in Beagle dogs was obtained from Letendre et al., Veterinary Parasitology, 201, 190-197. A mathematical model was used to estimate the impact of these compounds on Anopheles stephensi mosquito survival.

For the next series, the system named is Anopheles stephensi. Description: Standard membrane feeding assay, Anopheles stephensi. The format is in vivo. The following applies: for IC50: Anopheles stephensi; for killing of mosquitos (in words): lethality 1, 2 or 8 days after exposure; for whole blood IC99: mosquitocidal. The protocol: (§1) Mosquito colonies utilized in the examples were generally maintained as described: The colony of Anopheles stephensi (Sind-Kasur Nijmegen strain) was maintained at the Radboud University Medical Center, Nijmegen, The Netherlands, by 30° C. and 70-80% humidity and on a 12/12 hour day/night cycle. The Anopheles gambiae strains Kisumu and Tiassalé and the Aedes aegypti strains New Orleans and Cayman were reared at the Liverpool Insect Testing Establishment, Liverpool, UK. Kisumu is an insecticide susceptible lab strain. New Orleans was originally colonized by the Centers for Disease Control and Prevention. The Tiassalé strain was colonized from Southern Cote D'Ivoire where resistance to all classes of insecticide is found and the Cayman strain was colonized from Grand Cayman, where Aedes aegypti are highly resistant to DDT and pyrethroid insecticides. Both resistant strains are routinely selected with insecticides to ensure the maintenance of resistance, 0.75% permethrin for Cayman and 0.05% deltamethrin for Tiassalé, and profiled for resistance to a range of insecticides, including 4% dieldrin, to which Tiassalé is resistant but Cayman is susceptible.
(§2) Isoxazoline compounds fluralaner or afoxolaner were reconstituted in 50% human serum and 50% red blood cells and administered to adult Anopheles stephensi mosquitos via standard membrane feeding. Lethality was assessed 1, 2 or 8 days after exposure. FIG. 2A represents a plot of viable Anopheles stephensi versus fluralaner concentration at each day of assessment. FIG. 2B represents a plot of viable Anopheles stephensi versus afoxolaner concentration at each day of assessment. […] The IC50 values of each compound for Anopheles death were determined by logistic regression using a least squares method to find the best fit and are shown in Table 1. IC50 values were calculated by applying a four-parameter logistic regression model using a least-squares method to find the best fit using the Graphpad Prism 5.0 software package.
FIG. 2C represents a plot of viable Anopheles stephensi versus fluralaner concentration at each time of assessment. FIG. 2D represents a plot of viable Anopheles stephensi versus afoxolaner concentration at each time of assessment. FIG. 2E represents plots of viable Anopheles stephensi versus concentration of (S)- and (R)-enantiomers of afoxolaner at each time of assessment. […] The IC50 (M) concentrations are also shown for FIGS. 2C and 2D.

For series [2] the following is noted: Dog pharmacokinetics (published values); cited from earlier work.
Series [3] is described as follows: Further in vitro degradation assay, dog primary hepatocytes. The protocol:
(§3) In a further assay, isoxazolines (fluralaner and afoxolaner) and control compounds (7-Ethoxycoumarin and 7-Hydroxycoumarin [Sigma]) were dissolved in DMSO at 10 and 30 mM respectively, then diluted first 20-fold with 45% methanol in water and a further 10-fold in pre-warmed Williams' Medium E. Cryopreserved human, dog and rat hepatocytes (In Vitro Technologies) were thawed, isolated by percoll gradient and suspended in Williams' Medium E. Cells were then dispensed into the wells of 96-well plates containing 10 μL of diluted compounds, to reach a final concentration of 0.5×10^6 cells/mL and 1 μM of isoxazolines or 3 μM of control. After an incubation at 37° C. of 0, 15, 30, 60 or 90 minutes, the reaction was stopped with acetonitrile. The samples were then shaken for 10 minutes at 500 rpm and centrifuged at 3220 g for 20 minutes. Supernatants were transferred and stored at 4° C. until LC-MS-MS analysis.

The nature of series [4]: Further in vitro degradation assay, human primary hepatocytes. Conditions: for half-life / hepatocyte CLint: human; for metabolization when incubated with human hepatocytes: in words. The protocol: as §3
Series [5] has as its system various Anopheles and Aedes mosquitos. Description: Membrane feeding, all Anopheles and Aedes strains tested. Conditions: read-out: IC50 values, range against all strains tested. It counts as in vivo. The protocol: as §2
Series [6] concerns Anopheles gambiae (Tiassalé). In words: Membrane feeding, Anopheles gambiae Tiassalé strain (rdl mutation). The format is in vivo. Conditions: for IC50: Anopheles gambiae, read-out: IC50 [95% CI]. The protocol: as §1, §2
The membrane feeding experiment described was repeated using the insecticide dieldrin on two strains of Anopheles gambiae: Kisumu and Tiassale. The Tiassale strain has a mutation in the resistance to dieldrin (rdl) locus, which codes for γ-aminobutyric acid (GABA) receptor. The Tiassale strain was resistant to pyrethroids, carbamate, DDT and dieldrin (knockdown resistance (kdr), Ace and rdl mutations). The Kisumu strain was susceptible to killing by all tested insecticides. FIG. 3A represents a plot of percentage survival of Kisumu and Tiassale strains of Anopheles gambiae versus dieldrin concentration. FIG. 3B represents a plot of survival of the Kisumu and Tiassale strains at 10 μM dieldrin. […] Both figures indicate that the dose-response in systemic feed experiment performed here in allows for identification of a resistance profile.
The feed experiment in Anopheles gambiae was repeated using the isoxazoline compounds fluralaner and afoxolaner to determine if the rdl mutation confers resistance to the isoxazoline insecticides. Isoxazoline insecticides target Rdl, but in a location thought to be different from dieldrin. The mosquitos were fed fluralaner or afoxolaner at various concentrations and lethality was assessed after 24 hours. FIG. 4A represents a plot of percentage survival of Kisumu and Tiassale strains of Anopheles gambiae versus fluralaner concentration. FIG. 4B represents a plot of percentage survival of Kisumu and Tiassale strains of Anopheles gambiae versus afoxolaner concentration.

For `O=C(CNC(=O)c1ccc(C2=NO[C@](c3cc(Cl)cc(C(F)(F)F)c3)(C(F)(F)F)C2)c2ccccc12)NCC(F)(F)F` (racemic) [Afoxolaner, afoxolaner], the IC50 in series [1] (24 h) was 101 nM; in the series with Anopheles stephensi (24 h, read-out: IC50 (Anopheles death)), 107 nM; with Anopheles stephensi (24 h, read-out: IC50 [95% CI]), 107 nM; in the series with Anopheles stephensi (48 h, read-out: IC50 (Anopheles death)), 34 nM; in the series with Anopheles stephensi (192 h, read-out: IC50 (Anopheles death)) it was 14 nM; in series [5], 90 to 107 nM. Further, the IC50 in series [6] (24 h) was determined as 101 nM. For the same compound, the entries for the “time the concentration is above lethal level” value in the series with Anopheles mosquitos (1 mg/kg) and in the series on Anopheles mosquitos (4 mg/kg) were 43 days and 72 days, respectively. Besides, the “killing of mosquitos (in words)” value in the series with Anopheles stephensi is “effective at killing the mosquitos in a dose-dependent manner”. In the series on Anopheles stephensi, the “whole blood IC99” value is 233 nM and 146 ng/mL. Also, the “CL (plasma clearance)” value in series [2] is 4.95 mL/h/kg. Further, the Oral bioavailability in series [2] was 74%. The “V (volume of distribution)” value in series [2] is given as 2.68 L/kg. The half-life was 372 h in series [2], above 3.61 h in series [3] (hepatocytes) and above 3.61 h in series [4] (hepatocytes). The hepatocyte CLint in series [3] (hepatocytes) and in series [4] (hepatocytes) was below 6.4 µL/min/1e6 cells in each case. For the same compound, in series [4], the “metabolization when incubated with human hepatocytes” value was “Neither fluralaner nor afoxolaner showed measurable metabolization”. Also, in series [6] (Tiassalé strain), the “activity against strain carrying the resistance-to-dieldrin (rdl) mutation (in words)” value is given as “fully active”.
On to `Cc1cc(C2=NO[C@](c3cc(Cl)cc(Cl)c3)(C(F)(F)F)C2)ccc1C(=O)NCC(=O)NCC(F)(F)F` [Fluralaner, fluralaner], for which the IC50 in series [1] (24 hours after the blood meal, Kisumu strain) is 33.3 nM; in the series on Anopheles stephensi (24 h, 1 day after exposure, read-out: IC50 (Anopheles death)), 54 nM; in the series with Anopheles stephensi (48 h, 2 days after exposure, read-out: IC50 (Anopheles death)) it was 42 nM; with Anopheles stephensi (192 h, 8 days after exposure, read-out: IC50 (Anopheles death)), 37 nM; in the series with Anopheles stephensi (24 hours after the blood meal, read-out: IC50 [95% CI]), 56 nM; in series [5] (twenty-four hours after the blood meal) it was 33 to 56 nM. For the same compound, the IC50 in series [6] (24 hours after the blood meal, Tiassalé strain) came out at 33.2 nM. Further, the “time the concentration is above the level lethal to Anopheles mosquitos” value with Anopheles mosquitos (dose of 56 mg/kg) is 72 days. Besides, the “killing of mosquitos (in words)” value with Anopheles stephensi is on record as “effective at killing the mosquitos in a dose-dependent manner”. For the same compound, the “whole blood IC99” value with Anopheles stephensi was 119 nM and 66 ng/mL. In addition, in series [2], the “CL (plasma clearance)” value was 5.83 mL/h/kg. In series [2], the Oral bioavailability is given as 11-34%. The “V (volume of distribution)” value in series [2] is reported as 3.1 L/kg. In addition, the half-life in series [2] is 360 h; in series [3] (cryopreserved hepatocytes), above 3.61 h; in series [4] (cryopreserved hepatocytes), above 3.61 h. Besides, the hepatocyte CLint in series [3] (cryopreserved hepatocytes) and in series [4] (cryopreserved hepatocytes) was below 6.4 µL/min/1e6 cells each time. Also, in series [4], the “metabolization when incubated with human hepatocytes” value is reported as “Neither fluralaner nor afoxolaner showed measurable metabolization”. In series [6] (Tiassalé strain), the “activity against strain carrying the resistance-to-dieldrin (rdl) mutation (in words)” value is “fully active”.

One may read the IC50 as the midpoint of a concentration-inhibition curve. As a reminder, the half-life is the time needed for the level to fall by half in the phase considered. As a reminder, the hepatocyte CLint is a measure of how fast metabolising enzymes remove a compound, apart from limits set by blood flow. A lower hepatocyte CLint goes with slow turnover.
